From patent publication US20250034173A1, “PYRIDO[4,3-D]PYRIMIDINE COMPOUNDS” (PFIZER INC., priority 2023, published 2025) come the findings set out here.

In general, IC50 refers to the midpoint of a concentration-inhibition curve. The low end stands for higher potency, the high end for lower potency. Usually Kd stands for the concentration at which binding is half-saturated. Read a high Kd as a looser complex.

The subject of assay [1] is SW620 (colorectal cancer cell line). Put plainly: KRAS Cell Titer Glo (CTG) cell proliferation assay, SW620. It is filed as cell-based. Conditions: Homo sapiens, SW-620, 168 h; SW620 cells, 7-day CTG, geomean IC50. In outline:
(§1)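 Compounds pre-dispensed in 0.1% DMSO before seeding H358 (300 cells/well), SW620 (750) or PANC08.13 (600); 7-day exposure at 37 °C, 5% CO2. Viability by CellTiter-Glo luminescence after 15 min at room temperature. Percent effect normalised to DMSO (0%) and 1 uM trametinib (100%); geomean IC50.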
A general note: In ATP-based viability assays light output follows the ATP content of the culture.

The target in assay [2] is T1, KRAS Wild Type (Homo sapiens (Human), UniProt P01116). Put plainly: SPR binding affinity and kinetics, GTPγS-loaded KRAS Wild Type. The conditions noted are these: GTPγS loaded protein, geomean. In outline:
(§2)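 Surface plasmon resonance tracked compound dissociation for at least 3600 seconds, with no additional regeneration between cycles. Fit adequacy was judged from c2 values and randomness of the residue distribution.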
Background: Surface plasmon resonance follows binding to a sensor surface in real time, without labels.

Assay [3] concerns the target T2, KRAS G12V (Homo sapiens (Human), UniProt P01116, G12V). Put plainly: SPR binding affinity and kinetics, GTPγS-loaded KRAS G12V. Conditions: GTPγS loaded protein, geomean. The procedure, abridged: as §2
The subject of assay [4] is H358 (non-small cell lung cancer cell line). The experiment in a line: KRAS Cell Titer Glo (CTG) cell proliferation assay, H358. The assay is classed as cell-based. Conditions: Homo sapiens, NCI-H358, 168 h; H358 cells, 7-day CTG, geomean IC50. The procedure, abridged: as §1
Assay [5] has as its target T3, KRAS G12D (Homo sapiens (Human), UniProt P01116, G12D). The experiment in a line: SPR binding affinity and kinetics, GTPγS-loaded KRAS G12D. The conditions noted are these: GTPγS loaded protein, geomean. The procedure, abridged:
as §2

The target of assay [6] is T4, KRAS G12C (Homo sapiens (Human), UniProt P01116, G12C). Put plainly: SPR binding affinity and kinetics, GTPγS-loaded KRAS G12C. The conditions noted are these: GTPγS loaded protein, geomean. The procedure, abridged:
as §2

For assay [7], the target named is T2, KRAS G12V. The experiment in a line: SPR binding affinity and kinetics, GDP-loaded KRAS G12V. The conditions noted are these: GDP loaded protein, geomean. The source says: (§3) No additional regeneration was used.
(§4) Compound dissociation was monitored for at least 3600 seconds. […] No additional regeneration was used.
(§5) The adequateness of the fit was judged by c2 values and the randomness of residue distribution.

The subject of assay [8] is PANC08.13 (pancreatic cancer cell line). Put plainly: KRAS Cell Titer Glo (CTG) cell proliferation assay, PANC08.13. The assay is classed as cell-based. Conditions: Homo sapiens, PANC-08-13, 168 h; PANC08.13 cells, 7-day CTG, geomean IC50. In outline:
as §1

Assay [9] concerns the target T4, KRAS G12C. Put plainly: SPR binding affinity and kinetics, GDP-loaded KRAS G12C. Conditions: GDP loaded protein, geomean.
From the text: as §3, §4, §5

In assay [10] the target is T3, KRAS G12D. The experiment in a line: SPR binding affinity and kinetics, GDP-loaded KRAS G12D. Conditions: GDP loaded protein, geomean.
From the text: as §3, §4, §5

Assay [11] has as its target T1, KRAS Wild Type. The experiment in a line: SPR binding affinity and kinetics, GDP-loaded KRAS Wild Type. Conditions: GDP loaded protein, geomean.
From the text: as §3, §4, §5

For another assay, the target named is NRAS Wild Type (Homo sapiens (Human), UniProt P01111). Put plainly: SPR binding affinity and kinetics, GTPγS-loaded NRAS Wild Type. Conditions: GTPγS loaded protein, geomean. The procedure, abridged: as §2
Sequence of NRAS Wild Type (P01111 2-185): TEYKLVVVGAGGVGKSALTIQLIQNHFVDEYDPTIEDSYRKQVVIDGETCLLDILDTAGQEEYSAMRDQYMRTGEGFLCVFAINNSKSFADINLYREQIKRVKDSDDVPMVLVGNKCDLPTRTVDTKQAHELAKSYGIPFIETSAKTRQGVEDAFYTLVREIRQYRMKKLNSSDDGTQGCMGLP
Another assay deals with HRAS Wild Type (Homo sapiens (Human), UniProt P01112). Put plainly: SPR binding affinity and kinetics, GTPγS-loaded HRAS Wild Type. The conditions noted are these: GTPγS loaded protein, geomean. In outline: as §2
Sequence of HRAS Wild Type (P01112 2-184): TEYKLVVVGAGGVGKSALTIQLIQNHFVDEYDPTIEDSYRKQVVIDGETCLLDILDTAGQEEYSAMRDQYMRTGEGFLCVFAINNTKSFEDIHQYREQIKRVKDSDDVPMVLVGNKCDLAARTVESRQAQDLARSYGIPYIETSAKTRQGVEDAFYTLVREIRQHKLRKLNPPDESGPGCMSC

T4 sequence (P01116 other isoform, or with tags, fused parts or gaps G12C): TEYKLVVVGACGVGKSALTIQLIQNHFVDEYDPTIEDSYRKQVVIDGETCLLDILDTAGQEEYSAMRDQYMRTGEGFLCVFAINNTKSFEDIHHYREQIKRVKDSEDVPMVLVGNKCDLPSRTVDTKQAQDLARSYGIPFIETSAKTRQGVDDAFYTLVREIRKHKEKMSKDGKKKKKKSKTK
T2 sequence (P01116 other isoform, or with tags, fused parts or gaps G12V): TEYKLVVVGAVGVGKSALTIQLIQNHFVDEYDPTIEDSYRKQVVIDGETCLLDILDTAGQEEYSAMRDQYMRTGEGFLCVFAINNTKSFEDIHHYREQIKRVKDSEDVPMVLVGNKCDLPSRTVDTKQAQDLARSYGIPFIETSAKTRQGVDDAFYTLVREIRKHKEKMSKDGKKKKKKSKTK
T3 sequence (P01116 other isoform, or with tags, fused parts or gaps G12D): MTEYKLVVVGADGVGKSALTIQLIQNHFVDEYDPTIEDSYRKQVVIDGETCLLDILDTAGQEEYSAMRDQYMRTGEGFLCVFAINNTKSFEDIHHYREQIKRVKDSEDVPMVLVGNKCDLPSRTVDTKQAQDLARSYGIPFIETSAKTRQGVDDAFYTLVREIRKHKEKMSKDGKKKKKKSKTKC
T1 sequence (P01116 other isoform, or with tags, fused parts or gaps): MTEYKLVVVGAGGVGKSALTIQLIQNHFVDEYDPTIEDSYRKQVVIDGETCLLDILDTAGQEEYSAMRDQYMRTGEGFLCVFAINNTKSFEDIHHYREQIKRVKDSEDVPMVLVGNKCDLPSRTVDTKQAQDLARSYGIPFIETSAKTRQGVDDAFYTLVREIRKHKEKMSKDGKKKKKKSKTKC

Take `C=C1CN2CCC[C@@]2(COc2nc3c4c(nc(-c5c(C)ccc6[nH]ncc56)c(F)c4n2)OC[C@@H]2COCCCN32)C1` [Example 5, (8aS)-4-fluoro-2-{[(7aS)-2-methylidenetetrahydro-1H-pyrrolizin-7a(5H)-yl]methoxy}-5-(5-methyl-1H-indazol-4-yl)-8a,9,12,13-tetrahydro-8H,11H-7,10-dioxa-1,3,6,13a-tetraazanaphtho[1,8-ab]heptalene]: the IC50 in assay [1] worked out at 2680 nM; in assay [4] it was 2320 nM; in assay [8] it was 1040 nM. Besides, the Kd on KRAS Wild Type [2] came to 1450 nM; on KRAS G12V [3] it was 1430 nM; at KRAS G12D [5], 1240 nM; on KRAS G12C [6], 1560 nM; on KRAS G12V [7] it was 2.76 nM; at KRAS G12C [9] it was 1.95 nM. Moreover, the Kd at KRAS G12D [10] turned out to be 2.2 nM; at KRAS Wild Type [11] it was 5.42 nM.

In the case of `Fc1c(-c2c(Cl)c(Cl)cc3[nH]ncc23)nc2c3c(nc(OC[C@@]45CCCN4C[C@H](F)C5)nc13)N1CCCC[C@H]1CO2` [Example 4, (8aS)-5-(5,6-dichloro-1H-indazol-4-yl)-4-fluoro-2-{[(2R,7aS)-2-fluorotetrahydro-1H-pyrrolizin-7a(5H)-yl]methoxy}-8,8a,9,10,11,12-hexahydro-7-oxa-1,3,6,12a-tetraazabenzo[4,5]cyclohepta[1,2,3-de]naphthalene], the values for the half-inhibitory concentration (IC50) in assay [1], in assay [4] and in assay [8] were 3380 nM, 534 nM and 299 nM, respectively. Further, the Kd was 2290 nM at KRAS Wild Type [2]; 1590 nM on KRAS G12V [3]; 2030 nM on KRAS G12D [5]; 2270 nM at KRAS G12C [6]; 2.6 nM at KRAS G12V [7]; 4.29 nM at KRAS G12C [9]. The Kd turned out to be 1.36 nM on KRAS G12D [10] and 7.72 nM on KRAS Wild Type [11].

`C=C1CN2CCC[C@@]2(COc2nc3c4c(nc(-c5c(Cl)c(Cl)cc6[nH]ncc56)c(F)c4n2)OC[C@@H]2COCCCN32)C1` [Example 11, (8aS)-5-(5,6-dichloro-1H-indazol-4-yl)-4-fluoro-2-{[(7aS)-2-methylidenetetrahydro-1H-pyrrolizin-7a(5H)-yl]methoxy}-8a,9,12,13-tetrahydro-8H,11H-7,10-dioxa-1,3,6,13a-tetraazanaphtho[1,8-ab]heptalene]: the IC50 was found to be 315 nM in assay [1], 136 nM in [4] and 21 nM in [8]. In addition, the Kd at KRAS Wild Type [2] amounted to 40 nM; on KRAS G12V [3], 29 nM; at KRAS G12D [5] it was 19 nM; on KRAS G12C [6], 39 nM; on KRAS G12V [7] it was 0.067 nM; on KRAS G12C [9] it was 0.051 nM. Also, the Kd is 0.024 nM on KRAS G12D [10] and 0.091 nM on KRAS Wild Type [11].

For `C=C1CN2CCC[C@@]2(COc2nc3c4c(nc(-c5c(C6CC6)c(Cl)cc6[nH]ncc56)c(F)c4n2)OC[C@@H]2COCCCN32)C1` [Example 2, (8aS)-5-(6-chloro-5-cyclopropyl-1H-indazol-4-yl)-4-fluoro-2-{[(7aS)-2-methylidenetetrahydro-1H-pyrrolizin-7a(5H)-yl]methoxy}-8a,9,12,13-tetrahydro-8H,11H-7,10-dioxa-1,3,6,13a-tetraazanaphtho[1,8-ab]heptalene], the values for the IC50 in [1], in assay [4] and in [8] were 14 nM, 10 nM and less than 2 nM, respectively. For the same compound, the Kd was 5 nM at KRAS Wild Type [2]; 4 nM at KRAS G12V [3]; 1 nM at KRAS G12D [5]; 5 nM at KRAS G12C [6]; 0.144 nM at KRAS G12V [7]; more than 10000 nM at NRAS Wild Type. For the same compound, the Kd on KRAS G12C [9] is 0.019 nM; at HRAS Wild Type, more than 10000 nM; on KRAS G12D [10] it was 0.041 nM; on KRAS Wild Type [11], 0.004 nM.

For `Fc1c(-c2cccc3[nH]ncc23)nc2c3c(nc(OC[C@@]45CCCN4C[C@H](F)C5)nc13)N1CCCOC[C@H]1CO2` [Example 3, (8aS)-4-fluoro-2-{[(2R,7aS)-2-fluorotetrahydro-1H-pyrrolizin-7a(5H)-yl]methoxy}-5-(1H-indazol-4-yl)-8a,9,12,13-tetrahydro-8H,11H-7,10-dioxa-1,3,6,13a-tetraazanaphtho[1,8-ab]heptalene], the IC50 in assay [1], in assay [4] and in assay [8] was more than 9990 nM each time. The Kd on KRAS Wild Type [2] was more than 1000 nM; on KRAS G12V [3], more than 1000 nM; at KRAS G12D [5], more than 1000 nM; on KRAS G12C [6], more than 1000 nM; on KRAS G12V [7] it was more than 10000 nM; at KRAS G12C [9], more than 10000 nM. Also, the dissociation constant (Kd) at KRAS G12D [10] and at KRAS Wild Type [11] was more than 10000 nM each time.

With `C=C1CN2CCC[C@@]2(COc2nc3c4c(nc(-c5c(C(F)(F)F)c(Cl)cc6[nH]ncc56)c(F)c4n2)OC[C@@H]2COCCCN32)C1` [Example 13, (8aS)-5-[6-chloro-5-(trifluoromethyl)-1H-indazol-4-yl]-4-fluoro-2-{[(7aS)-2-methylidenetetrahydro-1H-pyrrolizin-7a(5H)-yl]methoxy}-8a,9,12,13-tetrahydro-8H,11H-7,10-dioxa-1,3,6,13a-tetraazanaphtho[1,8-ab]heptalene], the IC50 came to 70 nM in [1], 26 nM in assay [4] and 7 nM in [8]. Moreover, the equilibrium dissociation constant (Kd) on KRAS Wild Type [2] amounted to 5 nM; on KRAS G12V [3], 3 nM; at KRAS G12D [5] it was 1 nM; at KRAS G12C [6] it was 4 nM; on KRAS G12V [7], 0.072 nM; at KRAS G12C [9], 0.017 nM. For the same compound, the Kd at KRAS G12D [10] was 0.106 nM; on KRAS Wild Type [11] it was less than 0.001 nM.

As to `C=C1CN2CCC[C@@]2(COc2nc3c4c(nc(-c5c(C(F)F)ccc6[nH]ncc56)c(F)c4n2)OC[C@@H]2COCCCN32)C1` [Example 10, (8aS)-5-[5-(difluoromethyl)-1H-indazol-4-yl]-4-fluoro-2-{[(7aS)-2-methylidenetetrahydro-1H-pyrrolizin-7a(5H)-yl]methoxy}-8a,9,12,13-tetrahydro-8H,11H-7,10-dioxa-1,3,6,13a-tetraazanaphtho[1,8-ab]heptalene], the IC50 in assay [1] worked out at 9530 nM; in [4] it was 4540 nM; in [8], 475 nM. In addition, the Kd at KRAS Wild Type [2] is 2880 nM; on KRAS G12V [3] it was 2820 nM; on KRAS G12D [5], 2550 nM; on KRAS G12C [6], 3230 nM; on KRAS G12V [7] it was 3.9 nM; at KRAS G12C [9], 1.81 nM. The dissociation constant Kd on KRAS G12D [10] was 2.07 nM; on KRAS Wild Type [11], 8.03 nM.

Regarding `C=C1CN2CCC[C@@]2(COc2nc3c4c(nc(-c5c(Cl)ccc6[nH]ncc56)c(F)c4n2)OC[C@@H]2COCCCN32)C1` [Example 6, (8aS)-5-(5-chloro-1H-indazol-4-yl)-4-fluoro-2-{[(7aS)-2-methylidenetetrahydro-1H-pyrrolizin-7a(5H)-yl]methoxy}-8a,9,12,13-tetrahydro-8H,11H-7,10-dioxa-1,3,6,13a-tetraazanaphtho[1,8-ab]heptalene], the concentration for half-maximal inhibition (IC50) amounted to 1320 nM in assay [1], 847 nM in [4] and 404 nM in assay [8]. The Kd came out at 546 nM on KRAS Wild Type [2]; 639 nM at KRAS G12V [3]; 467 nM at KRAS G12D [5]; 635 nM on KRAS G12C [6]; 1.23 nM on KRAS G12V [7]; 0.894 nM on KRAS G12C [9]. Besides, the Kd was 0.956 nM on KRAS G12D [10] and 2.51 nM at KRAS Wild Type [11].

With `C=C1CN2CCC[C@@]2(COc2nc3c4c(nc(-c5c(C(F)(F)F)ccc6[nH]ncc56)c(F)c4n2)OC[C@@H]2COCCCN32)C1` [Example 12, (8aS)-4-fluoro-2-{[(7aS)-2-methylidenetetrahydro-1H-pyrrolizin-7a(5H)-yl]methoxy}-5-[5-(trifluoromethyl)-1H-indazol-4-yl]-8a,9,12,13-tetrahydro-8H,11H-7,10-dioxa-1,3,6,13a-tetraazanaphtho[1,8-ab]heptalene], the results for the IC50 in [1], in [4] and in [8] were 463 nM, 211 nM and 35 nM, respectively. Besides, the Kd at KRAS Wild Type [2] was determined as 95 nM; at KRAS G12V [3], 62 nM; on KRAS G12D [5], 42 nM; on KRAS G12C [6], 84 nM; on KRAS G12V [7] it was 0.106 nM; at KRAS G12C [9], 0.122 nM. Further, the Kd at KRAS G12D [10] turned out to be 0.116 nM; at KRAS Wild Type [11] it was 0.257 nM.
